Experimental data published in ChEMBL document CHEMBL1127139, “Synthesis and -lactamase inhibitory activity of 6-hydroxyethyl thiaclavulanic acid” (Bioorg Med Chem Lett, 1993).
≈ marks a conversion by molar mass, not a printed value.

Experiments:
[1] = molecular target: Beta-lactamase OXA-1 (Escherichia coli) (UniProt P13661); assay: Tested for inhibitory activity against beta-lactamase (groupV) Escherichia coli R57b
[2] = molecular target: Beta-lactamase (Enterobacter cloacae) (UniProt P05364); assay: Tested for inhibitory activity against beta-lactamase (groupI) Enterobacter cloacae P99
Beta-lactamase (Enterobacter cloacae), sequence (P05364 21-381 limits assumed): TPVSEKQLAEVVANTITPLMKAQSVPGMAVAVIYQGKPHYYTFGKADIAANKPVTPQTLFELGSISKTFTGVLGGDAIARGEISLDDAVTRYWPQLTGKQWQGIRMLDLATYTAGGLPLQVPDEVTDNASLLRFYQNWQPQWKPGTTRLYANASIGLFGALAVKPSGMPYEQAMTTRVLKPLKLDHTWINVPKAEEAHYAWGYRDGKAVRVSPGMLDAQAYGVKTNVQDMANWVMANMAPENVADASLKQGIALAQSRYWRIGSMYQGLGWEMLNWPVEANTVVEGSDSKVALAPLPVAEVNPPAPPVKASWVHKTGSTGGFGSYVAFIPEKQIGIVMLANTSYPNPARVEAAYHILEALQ

[3] = molecular target: Beta-lactamase TEM (Escherichia coli) (UniProt P62593); assay: Tested for inhibitory activity against beta-lactamase (groupIII) Escherichia coli RPI
Beta-lactamase TEM (Escherichia coli), sequence (P62593 whole entry): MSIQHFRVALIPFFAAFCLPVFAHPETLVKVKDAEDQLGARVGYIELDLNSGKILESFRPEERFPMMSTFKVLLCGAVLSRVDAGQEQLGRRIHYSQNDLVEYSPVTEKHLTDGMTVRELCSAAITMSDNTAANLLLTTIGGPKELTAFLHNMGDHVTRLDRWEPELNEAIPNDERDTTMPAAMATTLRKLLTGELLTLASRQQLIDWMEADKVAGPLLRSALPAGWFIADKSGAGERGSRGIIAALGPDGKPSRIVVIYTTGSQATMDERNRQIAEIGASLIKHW

[4] = molecular target: T1, Beta-lactamase OXA-9 (Klebsiella aerogenes) (UniProt P0A3M4); assay: Tested for inhibitory activity against beta-lactamase (groupIV) Klebsiella aerogenes 1082E
T1 sequence (whole entry): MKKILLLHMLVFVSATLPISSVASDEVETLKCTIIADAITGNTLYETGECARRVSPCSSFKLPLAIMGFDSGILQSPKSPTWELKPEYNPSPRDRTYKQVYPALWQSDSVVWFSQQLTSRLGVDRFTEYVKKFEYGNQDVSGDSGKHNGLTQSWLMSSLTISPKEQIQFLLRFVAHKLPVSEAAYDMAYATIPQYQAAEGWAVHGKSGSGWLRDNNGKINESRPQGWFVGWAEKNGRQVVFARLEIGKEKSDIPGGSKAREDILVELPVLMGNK

[5] = molecular target: Beta-lactamase OXA-1 (Escherichia coli) (UniProt P13661); assay: Tested for inhibitory activity against beta-lactamase (groupV) Escherichia coli RGN
[6] = molecular target: Beta-lactamase (Staphylococcus aureus) (UniProt P00807); assay: Tested for inhibitory activity against beta-lactamase (groupII) staphylococcus aureus 39/2 strain
Beta-lactamase (Staphylococcus aureus), sequence (P00807 whole entry): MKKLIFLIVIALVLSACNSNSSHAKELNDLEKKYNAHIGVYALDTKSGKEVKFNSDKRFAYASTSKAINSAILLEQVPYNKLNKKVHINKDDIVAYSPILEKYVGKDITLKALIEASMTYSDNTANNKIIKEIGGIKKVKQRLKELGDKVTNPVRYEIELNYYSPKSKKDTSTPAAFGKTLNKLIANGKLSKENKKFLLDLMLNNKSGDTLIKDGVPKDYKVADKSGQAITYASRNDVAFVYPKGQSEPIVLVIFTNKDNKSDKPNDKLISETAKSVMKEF

[7] = molecular target: T1, Beta-lactamase OXA-9 (Klebsiella aerogenes); assay: Tested for inhibitory activity against beta-lactamase (groupIV) Klebsiella aerogenes 1082E in presence of ampicillin + 80 ug/mL of compound
[8] = molecular target: Beta-lactamase (Enterobacter cloacae) (UniProt P05364); assay: Tested for inhibitory activity against beta-lactamase (groupI) Enterobacter cloacae P99 in presence of ampicillin + 80 ug/mL of compound
[9] = molecular target: Beta-lactamase (Staphylococcus aureus) (UniProt P00807); assay: Tested for inhibitory activity against beta-lactamase (groupII) staphylococcus aureus 39/2 strain in presence of ampicillin + 80 ug/mL of compound
[10] = molecular target: Beta-lactamase OXA-1 (Escherichia coli) (UniProt P13661); assay: Tested for inhibitory activity against beta-lactamase (groupV) Escherichia coli RGN in presence of ampicillin + 20 ug/mL of compound
[11] = molecular target: Beta-lactamase OXA-1 (Escherichia coli) (UniProt P13661); assay: Tested for inhibitory activity against beta-lactamase (groupV) Escherichia coli RGN in presence of ampicillin + 80 ug/mL of compound
[12] = molecular target: Beta-lactamase TEM (Escherichia coli) (UniProt P62593); assay: Tested for inhibitory activity against beta-lactamase (groupIII) Escherichia coli RPI in presence of ampicillin + 20 ug/mL of compound
[13] = molecular target: T1, Beta-lactamase OXA-9 (Klebsiella aerogenes); assay: Tested for inhibitory activity against beta-lactamase (groupIV) Klebsiella aerogenes 1082E in presence of ampicillin + 20 ug/mL of compound
[14] = molecular target: Beta-lactamase TEM (Escherichia coli) (UniProt P62593); assay: Tested for inhibitory activity against beta-lactamase (groupIII) Escherichia coli RPI in presence of ampicillin + 80 ug/mL of compound
[15] = molecular target: Beta-lactamase OXA-1 (Escherichia coli) (UniProt P13661); assay: Tested for inhibitory activity against beta-lactamase (groupV) Escherichia coli R57b in presence of ampicillin + 80 ug/mL of compound
[16] = molecular target: Beta-lactamase (Staphylococcus aureus) (UniProt P00807); assay: Tested for inhibitory activity against beta-lactamase (groupII) staphylococcus aureus 39/2 strain in presence of ampicillin + 20 ug/mL of compound
[17] = molecular target: Beta-lactamase OXA-1 (Escherichia coli) (UniProt P13661); assay: Tested for inhibitory activity against beta-lactamase (groupV) Escherichia coli R57b in presence of ampicillin + 20 ug/mL of compound

Beta-lactamase OXA-1 (Escherichia coli), sequence (P13661 whole entry): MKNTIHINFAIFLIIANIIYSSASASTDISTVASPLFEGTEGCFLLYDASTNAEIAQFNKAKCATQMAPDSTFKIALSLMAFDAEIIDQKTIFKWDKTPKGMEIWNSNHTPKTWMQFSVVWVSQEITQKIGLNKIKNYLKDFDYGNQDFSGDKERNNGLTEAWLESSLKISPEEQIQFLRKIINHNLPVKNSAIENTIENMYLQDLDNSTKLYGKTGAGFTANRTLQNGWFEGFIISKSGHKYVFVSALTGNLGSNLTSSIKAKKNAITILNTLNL

| SMILES | MIC [1] [µg/mL] | MIC [2] [µg/mL] | MIC [3] [µg/mL] | MIC [4] [µg/mL] | MIC [5] [µg/mL] | MIC [6] [µg/mL] | MIC [7] [µg/mL] | MIC [8] [µg/mL] | MIC [9] [µg/mL] | MIC [10] [µg/mL] | MIC [11] [µg/mL] | MIC [12] [µg/mL] | MIC [13] [µg/mL] | MIC [14] [µg/mL] | MIC [15] [µg/mL] | MIC [16] [µg/mL] | MIC [17] [µg/mL] |
| --- | --- | --- | --- | --- | --- | --- | --- | --- | --- | --- | --- | --- | --- | --- | --- | --- | --- |
| CC1(C)S[C@@H]2[C@H](NC(=O)[C@H](N)c3ccccc3)C(=O)N2[C@H]1C(=O)O | 100 (≈ 286 µM) | > 100 | > 100 | > 100 | 12.5 (≈ 35.8 µM) | 1.56 (≈ 4.46 µM) | – | – | – | – | – | – | – | – | – | – | – |
| C[C@H](O)[C@H]1C(=O)N2[C@@H]1S/C(=C\CO)[C@@H]2C(=O)O | – | – | – | – | – | – | > 100 | > 100 | < 0.39 | 6.25 | 3.12 | > 100 | > 100 | > 100 | 1.56 | < 0.39 | 6.25 |
